From US20200384079A1, “Compositions of Fibroblast Growth Factor LIgands and Methods of Treating Patients Undergoing Ischemia-Reperfusion Therapy” (University of Cincinnati, priority 2017, published 2020) come the findings set out here.

Test [1] deals with in vivo rat model of myocardial infarction. Description: In vivo rat ischemia-reperfusion model, infarct size (TTC). Also noted: species or system Sprague Dawley rats. The following applies: for effect on infarct size / cardioprotection (in words): FGF given at reperfusion with heparin co-therapy; for effect on infarct size (in words): given at reperfusion, no heparin co-therapy; for reduction in infarct size compared to saline/vehicle control: given i.v. at reperfusion alone (FGF 10 μg/kg; heparin 12 U/kg/hr). As for the experimental part: CVR-2016-799R1 signaling and the other two sets were to evaluate the pharmacokinetic properties of native FGF1 and modified FGF1 (FGF1^ΔHBS). The first set of experiments was for the ischemia/reperfusion study in which animals were divided into six groups as follows: (1) saline group: saline treatment given intravenously for 10 minutes immediately upon reperfusion, (2) heparin group: heparin, 60 U/kg intravenous (i.v.) bolus, given immediately at reperfusion+12 U/kg/hr i.v. infusion for 120 minutes of reperfusion, (3) FGF1 group: FGF1, 10 μg/kg i.v. infusion, given for 10 minutes immediately at reperfusion, (4) FGF1+heparin: heparin, 60 U/kg bolus, given immediately upon reperfusion followed by FGF1, 10 μg/kg i.v. infusion, given for 10 minutes and 12 U/kg/hr i.v. infusion given for 110 minutes of reperfusion, (5) modified FGF1 (FGF1^ΔHBS) group: FGF1^ΔHBS, 10 μg/kg i.v. infusion, given for 10 minutes, or (6) FGF1^ΔHBS+heparin: heparin, 60 U/kg bolus, given immediately at reperfusion followed by FGF1^ΔHBS, 10 μg/kg i.v. infusion, given for 10 minutes and 12 U/kg/hr i.v. infusion for 110 minutes of reperfusion. All rats were subjected to 30 minutes of regional ischemia and 120 minutes of reperfusion. Drugs were administered at the onset of reperfusion via the jugular vein (FIG. 2A). […] A total of ninety-six rats was completed for the I/R study. Sample size for each group ranged from 9-16 depending on the power analysis. A total of thirty-five rats were excluded from the study based on the lack of cyanosis of the heart or typical elevation of the ST segment in the electrocardiogram during ischemia, and death from malignant arrhythmia. For the biodistribution or FGF1 signaling study, rats were randomly divided into six groups as described above (FIG. 2B). Following drug treatment (immediately following 15 minutes of treatment or 105 minutes post-treatment at the point which mimics the length of time of reperfusion), solid organs and blood (see sections “Tissue collection for exogenous FGF1 biodistribution” and “Cardiac preparation to detect the activation of FGF1 downstream molecules”) were collected. A total of 33 rats were used for biodistribution and FGF1 signaling studies, and 3 rats were excluded due to anesthetic overdose. Also, a total of 8 plasma samples were excluded because of hemolysis. For elimination half-life of native FGF1 and FGF1^ΔHBS, 12 rats were randomly divided into two groups and treated intraperitoneally with either FGF1 form as described in the section “Pharmacokinetic evaluation of exogenous FGF1 or FGF1^ΔHBS ”.
The in vivo I/R model was established by ligating and loosening the left anterior CVR-2016-799R1 descending artery (LAD) previously described by our laboratory. In brief, rats were anesthetized with thiobutabarbital sodium salt hydrate, Inactin® hydrate (100 mg/kg, i.p., Sigma-Aldrich), and intubated and artificially ventilated via a rodent respirator (respiratory rate: 75 strokes/minute; tidal volume: 3 mL; Model 683, Harvard, USA). The heart was exposed through a left thoracotomy and pericardiotomy, and a 6-0 silk suture was placed around the left anterior descending (LAD) coronary artery. After equilibration for 15 minutes, hearts were subjected to 30 minutes of ischemia by ligating the LAD via a snare occluder and reperfusion occurred for 120 minute via loosening the snare occluder. The appearance of cyanosis of the heart and significant ST-segment elevation in the electrocardiogram were used to verify successful ligation.
At the end of the ischemia-reperfusion injury study, the LAD was re-occluded with the suture used previously for the establishment of ischemia. 5% Evans blue dye solution was given via the jugular vein to define the area-at-risk (AAR). Then, the heart was arrested in diastole with 1 mL of 15% potassium chloride, and the animal was euthanized with an anesthetic overdose followed by a bilateral pneumothorax for removal of the heart. […]

For test [2], the system named is ERK1/2. Description: ERK1/2 activation (phosphorylation) in left ventricle, immunoblot. The format is in vivo, rat. The following applies: immediately post-treatment. The method, then: Hearts from rats treated with saline, native FGF1 or FGF1^ΔHBS in the presence or absence of heparin were collected immediately after administration and at 120 minutes post-treatment for evaluation of downstream signaling. One-half of each snap-frozen heart was powdered and homogenized in protein extraction buffer as previously described by our laboratory. For FGFR1, 150 μg of total protein were loaded onto a 8% SDS-PAGE gel, for ERK1/2 activation, 20 μg of whole cell protein homogenate was loaded onto a 15% SDS-PAGE gel, and for PKCα and PKCδ, […] of whole cell protein homogenate was loaded onto a 10% SDS-PAGE gel and then transferred to nitrocellulose membrane. 0.1% Ponceau S in 5% acetic acid was used to examine the transfer efficiency and loading equality as described previously 43. Membranes were blocked with 5% dry milk and then incubated with primary antibody against phospho-FGFR1 (Y-654, 1:500, Cell Signaling), phospho-ERK1/2 (1:1000, Cell Signaling) or phospho-PKCα (1:500, Santa Cruz) or phospho-PKCδ (1:500, Santa Cruz) followed by incubation with HRP-conjugated secondary goat anti-rabbit antibody (1:3000, Santa Cruz Biotechnology). Membranes were stripped and reprobed with antibodies against total FGFR1 (1:500, Cell Signaling), total ERK (1:1000, BD Transduction Labs) or total PKCα (1:500, Santa Cruz) or PKCδ (1:500, Santa Cruz). Bound antibodies were visualized by ECL system. Activation is indicated as a ratio of phosphorylated protein/total protein. β-actin (1:1000, Cell Signaling) was also used as a loading control.
Construction of his-tagged native and heparin-binding modified rhFGFs as well as their expression and purification is performed as previously described using his-tagged expression vectors and nickel-nitrilotriacetic acid resin columns. […] His-tagged FGFs are detected in solid organs by ELISA (FIG. 14) both for FGF and histidine (data not shown), and immunoprecipitation (IP) followed by immunoblot and in plasma by ELISA as described previously. His-tags are widely used because they are small and rarely interfere with function, activity, or structure of target proteins. […] There is no observed difference in total ERK or FGFR1 expression between the treatment groups.
(In western blotting, separated proteins are transferred to a membrane and probed.)

Where [3] appears, read: as E6 but FGF 10 μg/kg i.v. in the presence of heparin co-administration.
The mark [4] stands for this setting: rat, 30 min ischemia/120 min reperfusion, given i.v. at reperfusion alone (FGF 10 μg/kg; heparin 60 U/kg bolus + 12 U/kg/hr).

Values joined by “and” are separate entries in the source; they are usually repeats but may differ in a detail not shown here. Identical values can stand only once. “Also recorded” adds a separate entry of the source.

In the case of “FGF1: native recombinant human fibroblast growth factor 1”, the results for the “infarct size (% infarct, percentage of area-at-risk)” value in test [1] (setting [3]) and in test [1] (setting [4]) were 42% and 35%, respectively. For the same molecule, the “effect on infarct size / cardioprotection (in words)” value in test [1] (rat, listed as native FGF1) is “markedly attenuated in the presence of heparin; also recorded: lower in the presence of heparin”. In addition, the “effect on infarct size (in words)” value in test [1] (rat) was “significantly reduced infarct size compared to saline”. Also, the “reduction in infarct size compared to saline/vehicle control” value in test [1] (rat) was 31%; in test [1] (rat, listed as native FGF1) it was 39% and 31%. Further, the figures for the “ERK1/2 activation (phosphorylation) in left ventricle (in words)” value in test [2] (FGF with heparin) and in test [2] (no FGF+heparin co-treatment) were “markedly reduced ERK1/2 activation stimulated by FGF1” and “significantly increased compared to saline or heparin only treatment”, respectively.

B1: FGF1^ΔHBS: FGF1 mutant carrying the K127D/K128Q/K133V triple mutation in its HS-binding region; reduced heparin-binding affinity (protein)
chain: MAEGEITTFTALTEKFNLPPGNYKKPKLLYCSNGGHFLRILPDGTVDGTRDRSDQHIQLQLSAESVGEVYIKSTETGQYLAMDTDGLLYGSQTPNEECLFLERLEENHYNTYISKKHAEKNWFVGLDQNGSCVRGPRTHYGQKAILFLPLPVSSD
As to B1, the “infarct size (% infarct, percentage of area-at-risk)” value in test [1] (setting [3]) was determined as 32%. Further, the “infarct size (% infarct, percentage of area-at-risk)” value in test [1] (setting [4]) was determined as 22%. Also, in test [1] (rat), the “effect on infarct size / cardioprotection (in words)” value was “minor, and no statistically significant, inhibition; also recorded: did not reduce the cardioprotective effect; also recorded: not altered in the presence of heparin”; the “effect on infarct size (in words)” value was “marked reduction in infarct size compared to the native form of FGF1; also recorded: markedly lowered infarct size compared to FGF1”; the “reduction in infarct size compared to saline/vehicle control” value is 62% and 60%. Moreover, in test [1] (rat, same dose at reperfusion), the “fold more efficacious in reducing infarct size than native FGF1” value is ~2 fold. Also, in test [2] (no FGF+heparin co-treatment), the “ERK1/2 activation (phosphorylation) in left ventricle (in words)” value is listed as “significantly increased compared to saline or heparin only treatment; also recorded: significantly higher level of phosphorylated ERK1/2”.
